Measured values taken from ChEMBL document CHEMBL4043152, “Design, synthesis, and cytotoxic activity of novel 7-substituted camptothecin derivatives incorporating piperazinyl-sulfonylamidine moieties” (Bioorg Med Chem Lett, 2017).

Assays:
Type in all cases: functional, cell-based
[1] = system: A549; experiment: Cytotoxicity against human A549 cells after 72 hrs by SRB assay; settings: A549, 72 h
[2] = system: MDA-MB-231; experiment: Cytotoxicity against human MDA-MB-231 cells after 72 hrs by SRB assay; settings: MDA-MB-231, 72 h
[3] = system: KB; experiment: Cytotoxicity against human KB cells after 72 hrs by SRB assay
[4] = system: MCF7; experiment: Cytotoxicity against human MCF7 cells after 72 hrs by SRB assay; settings: MCF7, 72 h
[5] = Cytotoxicity against human KBVIN cells after 72 hrs by SRB assay

SMILES	IC50 [1]	IC50 [2]	IC50 [3]	IC50 [4]	IC50 [5]
CC[C@@]1(O)C(=O)OCc2c1cc1n(c2=O)Cc2c-1nc1ccccc1c2CN1CCN(/C(Cc2ccc(OC)cc2)=N\S(=O)(=O)c2ccc([N+](=O)[O-])cc2)CC1	2930 nM	9750 nM	1060 nM	8360 nM	970 nM
CC[C@@]1(O)C(=O)OCc2c1cc1n(c2=O)Cc2c-1nc1ccccc1c2CN1CCN(/C(Cc2ccc(F)cc2)=N\S(=O)(=O)c2ccc([N+](=O)[O-])cc2)CC1	630 nM	3540 nM	4430 nM	2180 nM	850 nM
CC[C@@]1(O)C(=O)OCc2c1cc1n(c2=O)Cc2c-1nc1ccccc1c2CN1CCN(/C(Cc2ccc(OC)cc2)=N\S(=O)(=O)c2ccc(C)cc2)CC1	740 nM	5840 nM	830 nM	5670 nM	3080 nM
CC[C@@]1(O)C(=O)OCc2c1cc1n(c2=O)Cc2c-1nc1ccccc1c2CN1CCN(/C(Cc2ccc(F)cc2)=N\S(=O)(=O)c2ccc(F)cc2)CC1	4310 nM	10200 nM	10100 nM	8850 nM	1810 nM
CC[C@@]1(O)C(=O)OCc2c1cc1n(c2=O)Cc2c-1nc1ccccc1c2CN1CCN(/C(Cc2ccccc2)=N\S(=O)(=O)c2ccccc2)CC1	650 nM	4410 nM	630 nM	2250 nM	1770 nM
CC[C@@]1(O)C(=O)OCc2c1cc1n(c2=O)Cc2c-1nc1ccccc1c2CN1CCN(/C(Cc2ccccc2)=N\S(=O)(=O)CC)CC1	730 nM	3500 nM	490 nM	1900 nM	4290 nM
CC[C@@]1(O)C(=O)OCc2c1cc1n(c2=O)Cc2c-1nc1ccccc1c2CN1CCN(/C(Cc2ccccc2)=N\S(=O)(=O)c2cccs2)CC1	650 nM	3990 nM	590 nM	1250 nM	1270 nM
CC[C@@]1(O)C(=O)OCc2c1cc1n(c2=O)Cc2c-1nc1ccccc1c2CN1CCN(/C(Cc2ccc(F)cc2)=N\S(=O)(=O)c2ccc(C)cc2)CC1	1770 nM	6010 nM	1070 nM	7040 nM	2770 nM
CC[C@@]1(O)C(=O)OCc2c1cc1n(c2=O)Cc2c-1nc1ccccc1c2CN1CCN(/C(Cc2ccc(OC)cc2)=N\S(=O)(=O)c2cccnc2)CC1	800 nM	4960 nM	880 nM	4220 nM	2380 nM
CC[C@@]1(O)C(=O)OCc2c1cc1n(c2=O)Cc2c-1nc1ccccc1c2CN1CCN(/C(Cc2ccc(F)cc2)=N\S(=O)(=O)CC)CC1	500 nM	2510 nM	330 nM	1600 nM	970 nM
CC[C@@]1(O)C(=O)OCc2c1cc1n(c2=O)Cc2cc3c(CN(C)C)c(O)ccc3nc2-1 [TOPOTECAN]	110 nM			280 nM	660 nM
CCc1c2c(nc3ccc(OC(=O)N4CCC(N5CCCCC5)CC4)cc13)-c1cc3c(c(=O)n1C2)COC(=O)[C@]3(O)CC [IRINOTECAN]	8310 nM			11300 nM	> 20000 nM
CC[C@@]1(O)C(=O)OCc2c1cc1n(c2=O)Cc2c-1nc1ccccc1c2CN1CCN(/C(Cc2ccc(F)cc2)=N\S(=O)(=O)c2cccnc2)CC1	2590 nM	6310 nM	6760 nM	6050 nM	5820 nM
CC[C@@]1(O)C(=O)OCc2c1cc1n(c2=O)Cc2c-1nc1ccccc1c2CN1CCN(/C(Cc2ccccc2)=N\S(=O)(=O)c2ccc(Cl)cc2)CC1	640 nM	5010 nM	740 nM	3190 nM	1550 nM
CC[C@@]1(O)C(=O)OCc2c1cc1n(c2=O)Cc2c-1nc1ccccc1c2CN1CCN(/C(Cc2ccc(F)cc2)=N\S(=O)(=O)c2ccc3ccccc3c2)CC1	600 nM	5410 nM	4720 nM	4740 nM	380 nM
CC[C@@]1(O)C(=O)OCc2c1cc1n(c2=O)Cc2c-1nc1ccccc1c2CN1CCN(/C(Cc2ccc(OC)cc2)=N\S(=O)(=O)c2ccc3ccccc3c2)CC1	740 nM	9360 nM	840 nM	6560 nM	3660 nM
CC[C@@]1(O)C(=O)OCc2c1cc1n(c2=O)Cc2c-1nc1ccccc1c2CN1CCN(/C(Cc2ccc(OC)cc2)=N\S(=O)(=O)CC)CC1	710 nM	3810 nM	470 nM	2900 nM	2730 nM
CC[C@@]1(O)C(=O)OCc2c1cc1n(c2=O)Cc2c-1nc1ccccc1c2CN1CCN(/C(Cc2ccccc2)=N\S(=O)(=O)c2cccnc2)CC1	760 nM	3840 nM	720 nM	3400 nM	2090 nM
CC[C@@]1(O)C(=O)OCc2c1cc1n(c2=O)Cc2c-1nc1ccccc1c2CN1CCN(/C(Cc2ccccc2)=N\S(=O)(=O)c2ccc3ccccc3c2)CC1	3150 nM	11300 nM	2110 nM	9370 nM	890 nM
CC[C@@]1(O)C(=O)OCc2c1cc1n(c2=O)Cc2c-1nc1ccccc1c2CN1CCN(/C(Cc2ccccc2)=N\S(C)(=O)=O)CC1	650 nM	1570 nM	130 nM	1590 nM	3820 nM
